Key:
RON = RON (Homo sapiens, UniProt Q04912); assay: RON inhibitory activity, TR-FRET kinase assay; assay type: biochemical; settings: RON protein, ULight-labeled Poly GT substrate
Procedure: To measure the RON inhibitory activity of the example compounds, the IC50 of the compounds was measured using time-resolved fluorescence energy transfer (TR-FRET).
Specifically, the compound was prepared at a concentration of 1 mM with 100% DMSO and serially diluted 10 times through 3-fold dilution. 2 μl of the serially diluted compound was added to a 96-well plate containing 48 μl of 1× kinase reaction buffer (50 mM HEPES (pH 7.4), 0.01% Tween-20, 5 mM DTT, 0.5 mM Na3VO4, 2 mM EGTA, 10 mM MgCl2).
The RON protein was diluted with a RON storage buffer (50 mM Tris-HCl (pH 7.5), 150 mM NaCl, 0.5 mM EDTA, 0.02% Triton X-100) to a concentration of 49.3 nM, and then diluted again with 1× kinase reaction buffer to be 0.4 nM. As a substrate cocktail, a RON-specific substrate mixture (40 μM ULight-labeled Poly GT, 100 nM ATP) was prepared at a concentration twice the final reaction concentration.
(§1) After that, a 384-well plate was prepared, and 2.5 μl of the diluted example compound was added to each of the experimental group wells, and 2.5 μl of a 4% DMSO solution was dispensed into high control wells and low control wells.
(§2) Afterward, 2.5 μl of 0.4 nM RON was dispensed into the high control wells and the experimental group wells, and 2.5 μl of 1× kinase reaction buffer was added to the low control wells, and after centrifugation at 1000 RPM for 40 seconds at room temperature, the mixtures were incubated at room temperature for 20 to 30 minutes. Then, 5 μl of the substrate cocktail (2×) was dispensed into all wells, and after centrifugation at 1000 RPM for 40 seconds at room temperature, the mixtures were incubated at room temperature for 60 minutes. Afterward, 5 μl of 30 mM EDTA was added to all wells to terminate the reaction, and the mixtures were incubated again at room temperature for 5 minutes. Thereafter, 5 μl of 4× phosphotyrosine antibodies (Perkin Elmer) containing europium was added to all wells and incubated at room temperature for 60 minutes. After the incubation, the 384-well-plate was read with a Vison plate reader. At this time, the excitation wavelength was 340 nm, and the emission wavelengths were 620 nm and 665 nm. The IC50 value of each example compound was derived using the GraphPd Prism7 program.

cMET = cMET (Homo sapiens, UniProt P08581); assay: MET (cMET) enzyme inhibitory activity, TR-FRET kinase assay; assay type: biochemical; settings: cMET protein, TK peptide substrate
Sequence of cMET (P08581 25-1390): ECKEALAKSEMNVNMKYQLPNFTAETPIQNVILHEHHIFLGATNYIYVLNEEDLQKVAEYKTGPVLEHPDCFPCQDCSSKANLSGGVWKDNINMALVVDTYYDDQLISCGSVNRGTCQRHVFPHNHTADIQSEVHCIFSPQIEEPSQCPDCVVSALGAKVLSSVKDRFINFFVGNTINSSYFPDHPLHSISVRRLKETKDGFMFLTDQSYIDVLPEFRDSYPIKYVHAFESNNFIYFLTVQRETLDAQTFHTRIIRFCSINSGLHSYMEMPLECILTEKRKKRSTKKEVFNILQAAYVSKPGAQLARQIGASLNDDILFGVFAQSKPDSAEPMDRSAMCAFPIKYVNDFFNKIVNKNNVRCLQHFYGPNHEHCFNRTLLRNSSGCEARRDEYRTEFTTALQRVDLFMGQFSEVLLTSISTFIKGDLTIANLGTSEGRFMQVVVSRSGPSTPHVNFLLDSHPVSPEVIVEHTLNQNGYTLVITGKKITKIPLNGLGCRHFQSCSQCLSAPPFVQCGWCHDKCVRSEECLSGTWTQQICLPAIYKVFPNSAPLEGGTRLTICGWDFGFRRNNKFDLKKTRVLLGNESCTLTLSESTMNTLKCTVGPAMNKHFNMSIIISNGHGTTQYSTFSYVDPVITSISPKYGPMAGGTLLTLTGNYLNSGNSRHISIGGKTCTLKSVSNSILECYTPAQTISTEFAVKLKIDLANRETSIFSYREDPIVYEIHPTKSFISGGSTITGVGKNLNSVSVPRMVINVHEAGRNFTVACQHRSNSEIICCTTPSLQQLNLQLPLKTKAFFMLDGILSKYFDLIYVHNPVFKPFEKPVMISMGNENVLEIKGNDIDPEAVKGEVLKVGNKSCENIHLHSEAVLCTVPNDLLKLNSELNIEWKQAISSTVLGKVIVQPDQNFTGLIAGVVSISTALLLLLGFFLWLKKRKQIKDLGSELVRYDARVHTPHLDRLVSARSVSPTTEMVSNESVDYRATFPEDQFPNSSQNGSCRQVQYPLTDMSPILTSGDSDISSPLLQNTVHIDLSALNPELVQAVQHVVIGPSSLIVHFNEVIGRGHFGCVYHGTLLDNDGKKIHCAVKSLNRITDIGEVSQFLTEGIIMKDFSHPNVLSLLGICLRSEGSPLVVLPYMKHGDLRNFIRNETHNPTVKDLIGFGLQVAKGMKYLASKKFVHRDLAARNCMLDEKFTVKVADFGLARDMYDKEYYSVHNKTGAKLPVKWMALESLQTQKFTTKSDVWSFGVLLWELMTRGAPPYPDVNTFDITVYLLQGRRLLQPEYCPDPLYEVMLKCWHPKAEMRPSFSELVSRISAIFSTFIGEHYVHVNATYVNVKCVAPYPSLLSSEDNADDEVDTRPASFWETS
Procedure: In addition, to measure cMET enzyme activity inhibition, an experiment was performed by the same method as the experiment for measuring the RON enzyme activity inhibition.
Specifically, the compound was prepared at a concentration of 1 mM with 100% DMSO and serially diluted 10 times through 3-fold dilution. 2 μl of the serially diluted compound was added to a 96-well plate containing 48 μl 1× kinase reaction buffer (50 mM HEPES (pH 7.4), 0.05% BSA, 0.005% Tween-20, 1 mM DTT, 0.5 mM MnCl2, 20 mM MgCl2).
The cMET protein was diluted in a cMET storage buffer (50 mM Tris-HCl (pH 7.5), 150 mM NaCl, 0.05% Brij35, 1 mM DTT, 10% glycerol) to a concentration of 263 nM, and then diluted again with 1× kinase reaction buffer to 2 nM. As a substrate cocktail, a MET-specific substrate mixture (5 μM TK peptide, 10 mM ATP) was prepared at a concentration twice the final reaction concentration.
as §1
as §2, with “μl of 2 nM cMET” for “μl of 0.4 nM RON”, “2 nM cMET was dispensed” for “0.4 nM RON was dispensed”, “was dispensed to the high” for “was dispensed into the high”, “μl of 90 mM EDTA” for “μl of 30 mM EDTA”

Sequence of RON (Q04912 25-1400, species assumed): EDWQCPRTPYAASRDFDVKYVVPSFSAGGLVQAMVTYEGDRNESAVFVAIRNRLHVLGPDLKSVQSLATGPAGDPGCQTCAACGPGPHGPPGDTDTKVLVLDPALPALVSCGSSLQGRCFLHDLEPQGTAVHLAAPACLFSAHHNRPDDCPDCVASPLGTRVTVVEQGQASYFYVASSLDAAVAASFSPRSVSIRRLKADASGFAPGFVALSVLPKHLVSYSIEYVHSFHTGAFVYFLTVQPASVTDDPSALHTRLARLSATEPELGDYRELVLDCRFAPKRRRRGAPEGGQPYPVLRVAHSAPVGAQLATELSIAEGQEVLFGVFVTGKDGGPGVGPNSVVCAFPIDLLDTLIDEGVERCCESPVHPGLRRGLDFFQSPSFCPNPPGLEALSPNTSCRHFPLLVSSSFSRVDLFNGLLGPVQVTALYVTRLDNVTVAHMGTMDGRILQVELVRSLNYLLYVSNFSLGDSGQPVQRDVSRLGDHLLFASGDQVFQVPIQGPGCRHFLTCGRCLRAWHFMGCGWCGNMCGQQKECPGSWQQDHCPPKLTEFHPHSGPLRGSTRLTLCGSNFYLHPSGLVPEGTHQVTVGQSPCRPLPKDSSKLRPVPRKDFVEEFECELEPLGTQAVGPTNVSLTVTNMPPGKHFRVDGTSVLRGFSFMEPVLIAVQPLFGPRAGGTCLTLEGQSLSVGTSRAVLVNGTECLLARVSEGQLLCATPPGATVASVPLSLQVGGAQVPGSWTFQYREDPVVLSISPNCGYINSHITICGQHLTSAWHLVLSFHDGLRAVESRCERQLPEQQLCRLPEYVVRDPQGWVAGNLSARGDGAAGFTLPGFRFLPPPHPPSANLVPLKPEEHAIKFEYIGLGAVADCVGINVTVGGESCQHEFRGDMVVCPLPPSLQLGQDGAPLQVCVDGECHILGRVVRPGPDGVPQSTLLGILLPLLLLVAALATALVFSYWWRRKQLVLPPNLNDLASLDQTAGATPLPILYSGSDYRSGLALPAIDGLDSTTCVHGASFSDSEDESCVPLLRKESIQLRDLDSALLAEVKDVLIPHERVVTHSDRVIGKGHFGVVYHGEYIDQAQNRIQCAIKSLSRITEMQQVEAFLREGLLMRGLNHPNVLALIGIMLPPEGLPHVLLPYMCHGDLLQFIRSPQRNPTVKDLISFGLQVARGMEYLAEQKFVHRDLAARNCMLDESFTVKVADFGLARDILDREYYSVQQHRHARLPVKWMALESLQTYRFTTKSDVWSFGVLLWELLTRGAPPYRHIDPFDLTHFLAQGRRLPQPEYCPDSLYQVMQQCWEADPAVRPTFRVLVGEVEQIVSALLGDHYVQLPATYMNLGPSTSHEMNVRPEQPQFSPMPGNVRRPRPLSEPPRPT

## Nc1nccc(Oc2c(F)cc(NC(=O)c3cnn(-c4ccccc4)c3C(F)(F)F)cc2F)c1Cl [Example 1, N-(4-((2-amino-3-chloropyridin-4-yl)oxy)-3,5-difluorophenyl)-1-phenyl-5-(trifluoromethyl)-1H-pyrazole-4-carboxamide]
RON
  IC50: < 50 nM
cMET
  IC50: > 5 µM

## Nc1nccc(Oc2c(F)cc(NC(=O)c3cnn(-c4ncccn4)c3C(F)(F)F)cc2F)c1Cl [Example 2, N-(4-((2-amino-3-chloropyridin-4-yl)oxy)-3,5-difluorophenyl)-1-(pyrimidin-2-yl)-5-(trifluoromethyl)-1H-pyrazole-4-carboxamide]
RON
  IC50: < 50 nM
cMET
  IC50: 0.5 to 5 µM

## Nc1nccc(Oc2c(F)cc(NC(=O)c3cnn(-c4cccnn4)c3C(F)(F)F)cc2F)c1Cl [Example 3, N-(4-((2-amino-3-chloropyridin-4-yl)oxy)-3,5-difluorophenyl)-1-(pyridazin-3-yl)-5-(trifluoromethyl)-1H-pyrazole-4-carboxamide]
RON
  IC50: < 50 nM
cMET
  IC50: 0.5 to 5 µM

## CCc1c(C(=O)Nc2cc(F)c(Oc3ccnc(N)c3Cl)c(F)c2)cnn1-c1ncccc1F [Example 4, N-(4-((2-amino-3-chloropyridin-4-yl)oxy)-3,5-difluorophenyl)-5-ethyl-1-(3-fluoropyridin-2-yl)-1H-pyrazole-4-carboxamide]
RON
  IC50: < 50 nM
cMET
  IC50: > 5 µM

## Nc1nccc(Oc2cc(F)c(NC(=O)c3cnn(-c4ncccc4F)c3C(F)(F)F)cc2F)c1Cl [Example 5, N-(4-((2-amino-3-chloropyridin-4-yl)oxy)-2,5-difluorophenyl)-1-(3-fluoropyridin-2-yl)-5-(trifluoromethyl)-1H-pyrazole-4-carboxamide]
RON
  IC50: < 50 nM
cMET
  IC50: > 5 µM

## Nc1nccc(Oc2cc(F)c(NC(=O)c3cnn(-c4ccccc4)c3C(F)(F)F)cc2F)c1Cl [Example 6, N-(4-((2-amino-3-chloropyridin-4-yl)oxy)-2,5-difluorophenyl)-1-phenyl-5-(trifluoromethyl)-1H-pyrazole-4-carboxamide]
RON
  IC50: 50 to 500 nM
cMET
  IC50: > 5 µM

## Nc1nccc(Oc2cc(F)c(NC(=O)c3cnn(-c4ncccc4F)c3C(F)(F)F)c(F)c2)c1Cl [Example 7, N-(4-((2-amino-3-chloropyridin-4-yl)oxy)-2,6-difluorophenyl)-1-(3-fluoropyridin-2-yl)-5-(trifluoromethyl)-1H-pyrazole-4-carboxamide]
RON
  IC50: 50 to 500 nM
cMET
  IC50: > 5 µM

## Nc1nccc(Oc2cc(F)c(NC(=O)c3cnn(-c4ccccc4)c3C(F)(F)F)c(F)c2)c1Cl [Example 8, N-(4-((2-amino-3-chloropyridin-4-yl)oxy)-2,6-difluorophenyl)-1-phenyl-5-(trifluoromethyl)-1H-pyrazole-4-carboxamide]
RON
  IC50: 500 to 5000 nM
cMET
  IC50: > 5 µM

## Nc1ncnc(Oc2c(F)cc(NC(=O)c3cnn(-c4ccccc4)c3C(F)(F)F)cc2F)c1Cl [Example 9, N-(4-((6-amino-5-chloropyrimidin-4-yl)oxy)-3,5-difluorophenyl)-1-phenyl-5-(trifluoromethyl)-1H-pyrazole-4-carboxamide]
RON
  IC50: < 50 nM
cMET
  IC50: > 5 µM

## Nc1ncnc(Oc2c(F)cc(NC(=O)c3cnn(-c4ncccc4F)c3C(F)(F)F)cc2F)c1Cl [Example 10, N-(4-((6-amino-5-chloropyrimidin-4-yl)oxy)-3,5-difluorophenyl)-1-(3-fluoropyridin-2-yl)-5-(trifluoromethyl)-1H-pyrazole-4-carboxamide]
RON
  IC50: < 50 nM
cMET
  IC50: 0.5 to 5 µM

## Nc1ncnc(Oc2c(F)cc(NC(=O)c3cnn(-c4ncccc4Cl)c3C(F)(F)F)cc2F)c1Cl [Example 11, N-(4-((6-amino-5-chloropyrimidin-4-yl)oxy)-3,5-difluorophenyl)-1-(3-chloropyridin-2-yl)-5-(trifluoromethyl)-1H-pyrazole-4-carboxamide]
RON
  IC50: < 50 nM
cMET
  IC50: 0.5 to 5 µM
